Results from US11161852B1 (Halia Therapeutics, Inc., priority 2020, dated 2021).
pIC50: −log10 of the molar value.

What was measured:
[1] = molecular target: full-length recombinant human NEK7 (Homo sapiens (Human), UniProt Q8TDX7); assay: NEK7 Enzymatic Assay ([33P]-ATP, casein substrate); format: biochemical
Protocol: Casein substrate (from bovine milk, hydrolyzed and partially dephosphorylated mixture of α, β and a caseins, obtained from Sigma Aldrich, catalogue #C4765, diluted in distilled water to a final concentration of 1 mg/mL) and full-length recombinant human NEK7 (expressed by baculovirus in Sf9 insect cells using a N-terminal GST tag, obtained from SignalChem, catalogue #N09-10G, 0.1 μg/μL) were mixed in assay buffer (20 mM Hepes pH 7.5, 10 mM MgCl2, 1 mM EGTA, 0.02% Brij35, 0.02 mg/ml BSA, 0.1 mM Na3VO4, 2 mM DTT, 1% DMSO). Compounds of interest (serial 3-fold dilution in DMSO from 10 μM to 0.5 nM) or vehicle (1% DMSO) were dispensed into the kinase reaction mixture by Acoustic technology (Echo550; nanoliter range). After incubation at room temperature for 20 minutes, the kinase reaction was initiated by addition of [^33P]-ATP (specific activity […]) and the mixture was incubated at room temperature for 2 hours. The reaction was then stopped by spotting the reaction mixture on strips of phosphocellulose P81 paper. Following washing, the radioactivity of the P81 paper was measured and kinase activity data were expressed as the percent remaining kinase activity in test samples compared to vehicle reactions. IC50 values and curve fits were obtained using Prism (GraphPad Software).

[2] = tested on: IL-1β release from THP-1 cells; assay: IL-1β Release Assay (PMA-differentiated THP-1 cells, LPS + nigericin); format: cell-based; settings: Homo sapiens, 250 ng/mL LPS, 20 μM nigericin
Protocol: Approximately 1.5 million THP-1 cells were plated in each well of a 6-well TC plate and incubated with 40 nM PMA in RPMI (10% FBS, 1% Penstrep) for 24 hours. The media was then removed and cells were rested in RPMI (10% FBS, 1% Penstrep) for 24 hours after which time the media was removed and cells were pre-treated for 2 hours with various concentrations of compounds of interest (typically serial 3-fold dilution in RPMI+5% FBS, concentrations ranging from 1 μM to 0.5 nM) in RPMI (5% FBS). The media was again removed and cells were incubated with 250 ng/mL LPS and compounds of interest (concentrations as above) in RMPI (5% FBS) for 2 hours. The media was removed for a last time and cells were incubated with 20 μM nigericin and compounds of interest (concentrations as above) in Opti-MEM for 30 minutes. Cell media was then collected and the amount of cleaved IL-1β was determined using a JESS instrument (Protein Simple) and standard protocols. Cleaved Il-1β antibody was obtained from Cell Signaling (catalogue #83186S) and was used at 1:20 dilution in antibody diluent 2. Protein Simple 1× anti-Rabbit HRP secondary antibody was used along with Protein Simple luminol and peroxide for chemiluminescent detection. Primary antibody incubation time was increased from 30 minutes to 60 minutes.

full-length recombinant human NEK7, sequence (Q8TDX7 whole entry): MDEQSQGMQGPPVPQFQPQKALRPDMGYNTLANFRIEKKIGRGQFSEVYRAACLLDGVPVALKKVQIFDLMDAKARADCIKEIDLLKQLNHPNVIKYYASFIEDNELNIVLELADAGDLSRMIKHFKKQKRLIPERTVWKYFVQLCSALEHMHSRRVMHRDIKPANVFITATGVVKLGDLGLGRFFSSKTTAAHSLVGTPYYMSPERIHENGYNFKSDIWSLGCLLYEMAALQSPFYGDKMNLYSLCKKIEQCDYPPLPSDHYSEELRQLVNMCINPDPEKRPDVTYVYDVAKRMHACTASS

pIC50 [1]	pIC50 [2]	SMILES
< 5.82		Nc1ncnc2c1c(-c1ccc(NC(=O)Nc3cc(C4(C(F)(F)F)CC4)no3)cn1)cn2C1CC1 [Example 59, 1-(6-(4-amino-7-cyclopropyl-7H-pyrrolo[2,3-d]pyrimidin-5-yl)pyridin-3-yl)-3-(3-(1-(trifluoromethyl)cyclopropyl)isoxazol-5-yl)urea]
< 5.82		N#Cc1cc(-c2cn(C3CC3)c3ncnc(N)c23)ccc1NC(=O)Nc1cc(C2(C(F)(F)F)CC2)no1 [Example 50, 1-(4-(4-amino-7-cyclopropyl-7H-pyrrolo[2,3-d]pyrimidin-5-yl)-2-cyanophenyl)-3-(3-(1-(trifluoromethyl)cyclopropyl)isoxazol-5-yl)urea]
6.30 to 6.52		CN1CCC(n2cc(-c3ccc(NC(=O)Nc4cc(C5(C(F)(F)F)CC5)no4)c(F)c3)c3c(N)ncnc32)C1 (stereo not shown) [Example 56, 1-(4-(4-amino-7-(1-methylpyrrolidin-3-yl)-7H-pyrrolo[2,3-d]pyrimidin-5-yl)-2-fluorophenyl)-3-(3-(1-(trifluoromethyl)cyclopropyl)isoxazol-5-yl)urea]
> 6.82		CC(C)(O)Cn1cc(-c2ccc(NC(=O)Nc3cc(C4(C(F)(F)F)CC4)no3)nc2)c2c(N)ncnc21 [Example 46, 1-(5-(4-amino-7-(2-hydroxy-2-methylpropyl)-7H-pyrrolo[2,3-d]pyrimidin-5-yl)pyridin-2-yl)-3-(3-(1-(trifluoromethyl)cyclopropyl)isoxazol-5-yl)urea]
< 5.82		Nc1ncnc2c1c(-c1cc(F)c(NC(=O)Nc3cc(C4(C(F)(F)F)CC4)on3)c(F)c1)cn2C1CC1 [Example 60, 1-(4-(4-amino-7-cyclopropyl-7H-pyrrolo[2,3-d]pyrimidin-5-yl)-2,6-difluorophenyl)-3-(5-(1-(trifluoromethyl)cyclopropyl)isoxazol-3-yl)urea]
> 6.82		Nc1ncnc2c1c(-c1ccc(NC(=O)Nc3cc(C4(C(F)(F)F)CC4)on3)c(F)c1)cn2CCO [Example 61, 1-(4-(4-amino-7-(2-hydroxyethyl)-7H-pyrrolo[2,3-d]pyrimidin-5-yl)-2-fluorophenyl)-3-(5-(1-(trifluoromethyl)cyclopropyl)isoxazol-3-yl)urea]
< 5.82		Nc1nccc2c1c(-c1ccc(NC(=O)Nc3cc(C4(C(F)(F)F)CC4)no3)c(F)c1)cn2C1CC1 [Example 62, 1-(4-(4-amino-1-cyclopropyl-1H-pyrrolo[3,2-c]pyridin-3-yl)-2-fluorophenyl)-3-(3-(1-(trifluoromethyl)cyclopropyl)isoxazol-5-yl)urea]
6.30 to 6.52		Nc1ncnc2c1c(-c1ccc(NC(=O)Nc3cc(C4(C(F)(F)F)CC4)no3)c(F)c1)cn2C1CCC1 [Example 53, 1-(4-(4-amino-7-cyclobutyl-7H-pyrrolo[2,3-d]pyrimidin-5-yl)-2-fluorophenyl)-3-(3-(1-(trifluoromethyl)cyclopropyl)isoxazol-5-yl)urea]

The next lines start with the compound.

SMILES	pIC50 [1]	pIC50 [2]
CC(C)(C)c1cc(NC(=O)Nc2ccc(-c3cn(C4CC4)c4ncnc(N)c34)cc2F)on1 [Example 2, 1-(4-(4-amino-7-cyclopropyl-7H-pyrrolo[2,3-d]pyrimidin-5-yl)-2-fluorophenyl)-3-(3-(tert-butyl)isoxazol-5-yl)urea]	> 6.82	> 6.82
Nc1ncnc2c1c(-c1ccc(NC(=O)Nc3cc(C4(C(F)(F)F)CC4)no3)nc1)cn2C1CC1 [Example 37, 1-(5-(4-amino-7-cyclopropyl-7H-pyrrolo[2,3-d]pyrimidin-5-yl)pyridin-2-yl)-3-(3-(1-(trifluoromethyl)cyclopropyl)isoxazol-5-yl)urea]	> 6.82	> 6.82
Cc1cc(-c2cn(C3CC3)c3ncnc(N)c23)ccc1NC(=O)Nc1cc(C2(C(F)(F)F)CC2)no1 [Example 38, 1-(4-(4-amino-7-cyclopropyl-7H-pyrrolo[2,3-d]pyrimidin-5-yl)-2-methylphenyl)-3-(3-(1-(trifluoromethyl)cyclopropyl)isoxazol-5-yl)urea]	5.82 to 6.30	6.30 to 6.52
CC(C)(C)c1cc(NC(=O)NC2CC=C(c3cn(C4CC4)c4ncnc(N)c34)CC2)on1 (stereo not shown) [Example 15, 1-(4-(4-amino-7-cyclopropyl-7H-pyrrolo[2,3-d]pyrimidin-5-yl)cyclohex-3-en-1-yl)-3-(3-(tert-butyl)isoxazol-5-yl)urea]	< 5.82	< 6.00
Nc1ncnc2c1c(-c1ccc(NC(=O)Nc3cc(C4(C(F)(F)F)CC4)no3)c(F)c1)cn2C1CC1 [Example 5, 1-(4-(4-amino-7-cyclopropyl-7H-pyrrolo[2,3-d]pyrimidin-5-yl)-2-fluorophenyl)-3-(3-(1-(trifluoromethyl)cyclopropyl)isoxazol-5-yl)urea]	> 6.82	> 6.82
Nc1ncnc2c1c(-c1ccc(NC(=O)Nc3cc(C4(C(F)(F)F)CC4)no3)c(F)c1)cn2C1CC(O)C1 (stereo not shown) [Example 39, 1-(4-(4-amino-7-(3-hydroxycyclobutyl)-7H-pyrrolo[2,3-d]pyrimidin-5-yl)-2-fluorophenyl)-3-(3-(1-(trifluoromethyl)cyclopropyl)isoxazol-5-yl)urea]	> 6.82	> 6.82
CC(C)(C)c1nsc(NC(=O)Nc2ccc(-c3cn(C4CC4)c4ncnc(N)c34)cc2F)n1 [Example 21, 1-(4-(4-amino-7-cyclopropyl-7H-pyrrolo[2,3-d]pyrimidin-5-yl)-2-fluorophenyl)-3-(3-(tert-butyl)-1,2,4-thiadiazol-5-yl)urea]	< 5.82	
CC(C)c1cc(NC(=O)Nc2ccc(-c3cn(C4CC4)c4ncnc(N)c34)cc2F)on1 [Example 32, 1-(4-(4-amino-7-cyclopropyl-7H-pyrrolo[2,3-d]pyrimidin-5-yl)-2-fluorophenyl)-3-(3-isopropylisoxazol-5-yl)urea]	> 6.82	
Nc1ncnc2c1c(-c1cc(F)c(NC(=O)Nc3cc(C4(C(F)(F)F)CC4)no3)c(F)c1)cn2C1CC1 [Example 41, 1-(4-(4-amino-7-cyclopropyl-7H-pyrrolo[2,3-d]pyrimidin-5-yl)-2,6-difluorophenyl)-3-(3-(1-(trifluoromethyl)cyclopropyl)isoxazol-5-yl)urea]	< 5.82	
Nc1ncnc2c1c(-c1ccc(NC(=O)Nc3cc(C4(C(F)(F)F)CC4)no3)cc1F)cn2C1CC1 [Example 11, 1-(4-(4-amino-7-cyclopropyl-7H-pyrrolo[2,3-d]pyrimidin-5-yl)-3-fluorophenyl)-3-(3-(1-(trifluoromethyl)cyclopropyl)isoxazol-5-yl)urea]	6.30 to 6.52	
Nc1ncnc2c1c(-c1ccc(NC(=O)Nc3cc(C(F)(F)F)no3)c(F)c1)cn2C1CC1 [Example 28, 1-(4-(4-amino-7-cyclopropyl-7H-pyrrolo[2,3-d]pyrimidin-5-yl)-2-fluorophenyl)-3-(3-(trifluoromethyl)isoxazol-5-yl)urea]	6.52 to 6.82	
Cc1cc(NC(=O)Nc2ccc(-c3cn(C4CC4)c4ncnc(N)c34)cc2F)on1 [Example 7, 1-(4-(4-amino-7-cyclopropyl-7H-pyrrolo[2,3-d]pyrimidin-5-yl)-2-fluorophenyl)-3-(3-methylisoxazol-5-yl)urea]	5.82 to 6.30	
CCC(CC)c1cc(NC(=O)Nc2ccc(-c3cn(C4CC4)c4ncnc(N)c34)cc2F)on1 [Example 31, 1-(4-(4-amino-7-cyclopropyl-7H-pyrrolo[2,3-d]pyrimidin-5-yl)-2-fluorophenyl)-3-(3-(pentan-3-yl)isoxazol-5-yl)urea]	6.30 to 6.52	
Cc1cc(-c2cn(C3CC3)c3ncnc(N)c23)ncc1NC(=O)Nc1cc(C2(C(F)(F)F)CC2)no1 [Example 40, 1-(6-(4-amino-7-cyclopropyl-7H-pyrrolo[2,3-d]pyrimidin-5-yl)-4-methylpyridin-3-yl)-3-(3-(1-(trifluoromethyl)cyclopropyl)isoxazol-5-yl)urea]	< 5.82	
Nc1ncnc2c1c(-c1ccc(NC(=O)Nc3cc(CO)no3)c(F)c1)cn2C1CC1 [Example 36, 1-(4-(4-amino-7-cyclopropyl-7H-pyrrolo[2,3-d]pyrimidin-5-yl)-2-fluorophenyl)-3-(3-(hydroxymethyl)isoxazol-5-yl)urea]	5.82 to 6.30	
CC(C)(C)c1cc(NC(=O)Nc2ccc(-c3cn(C4CC4)c4ncnc(N)c34)cc2F)sn1 [Example 20, 1-(4-(4-amino-7-cyclopropyl-7H-pyrrolo[2,3-d]pyrimidin-5-yl)-2-fluorophenyl)-3-(3-(tert-butyl)isothiazol-5-yl)urea]	< 5.82	
CC(C)(C)c1nnc(NC(=O)Nc2ccc(-c3cn(C4CC4)c4ncnc(N)c34)cc2F)s1 [Example 19, 1-(4-(4-amino-7-cyclopropyl-7H-pyrrolo[2,3-d]pyrimidin-5-yl)-2-fluorophenyl)-3-(5-(tert-butyl)-1,3,4-thiadiazol-2-yl)urea]	6.30 to 6.52	
